Target: T1, NCC69 (HA:NCC69) (Drosophila melanogaster, UniProt Q9VTW8)
T1 sequence (Q9VTW8 1-1171): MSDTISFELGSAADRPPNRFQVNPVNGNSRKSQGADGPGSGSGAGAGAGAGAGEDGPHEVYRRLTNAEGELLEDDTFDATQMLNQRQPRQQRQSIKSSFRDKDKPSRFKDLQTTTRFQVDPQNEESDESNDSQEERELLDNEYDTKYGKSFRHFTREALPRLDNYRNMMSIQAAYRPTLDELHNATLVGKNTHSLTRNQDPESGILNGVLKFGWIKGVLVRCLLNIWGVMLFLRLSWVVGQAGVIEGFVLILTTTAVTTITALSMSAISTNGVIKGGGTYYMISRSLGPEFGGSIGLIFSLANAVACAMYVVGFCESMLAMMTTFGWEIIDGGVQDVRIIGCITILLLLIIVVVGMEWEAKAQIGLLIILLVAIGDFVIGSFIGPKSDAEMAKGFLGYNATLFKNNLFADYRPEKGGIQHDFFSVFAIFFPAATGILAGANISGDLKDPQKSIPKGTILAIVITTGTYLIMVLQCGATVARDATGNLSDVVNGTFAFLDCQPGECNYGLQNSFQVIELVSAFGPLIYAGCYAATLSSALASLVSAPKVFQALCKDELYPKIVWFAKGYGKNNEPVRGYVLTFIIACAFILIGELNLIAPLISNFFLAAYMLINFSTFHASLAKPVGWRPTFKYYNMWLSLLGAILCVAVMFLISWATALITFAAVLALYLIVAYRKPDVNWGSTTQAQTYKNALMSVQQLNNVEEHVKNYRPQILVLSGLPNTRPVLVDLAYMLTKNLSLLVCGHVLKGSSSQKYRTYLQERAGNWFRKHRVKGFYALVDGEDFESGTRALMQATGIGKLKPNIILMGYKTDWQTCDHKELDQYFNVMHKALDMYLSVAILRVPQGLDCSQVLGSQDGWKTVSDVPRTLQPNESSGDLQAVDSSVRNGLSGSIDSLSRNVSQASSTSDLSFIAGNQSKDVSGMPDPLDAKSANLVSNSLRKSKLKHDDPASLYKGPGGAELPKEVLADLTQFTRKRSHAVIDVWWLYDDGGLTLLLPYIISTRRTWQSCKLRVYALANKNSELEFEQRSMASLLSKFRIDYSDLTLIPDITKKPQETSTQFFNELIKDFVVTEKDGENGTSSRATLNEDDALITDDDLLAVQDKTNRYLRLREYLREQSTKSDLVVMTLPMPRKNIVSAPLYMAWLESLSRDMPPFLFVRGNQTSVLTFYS
Test: […] influx inhibition in stably transfected SL2 cells
Type: cell-based

A Ki of 0.049 µM was found for `CCCCNc1cc(C(=O)O)cc(S(N)(=O)=O)c1Oc1ccccc1` [bumetanide] in this work.

From PMC3005002 (Glia, 2011)
